The source of these data is PubChem BioAssay (NCI).

Molecules are shown by their SMILES.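 Briefly, cells in 96-well plates were exposed to five compound concentrations for 48 h, and endpoints were estimated by linear interpolation. GI50 marks 50% less growth. TGI marks complete inhibition of growth.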

Holding throughout (experiment): NCI tumour cell line growth inhibition, 48 h
Experiment [1] concerns IGROV1 ovarian.
The subject of experiment [2] is SF-539 CNS.
Experiment [3] concerns CCRF-CEM leukemia.
Experiment [4] has as its system SNB-19 CNS.
Experiment [5] relates to RXF 393 renal.
Experiment [6] has as its system MOLT-4 leukemia.
For experiment [7], the system named is OVCAR-8 ovarian.
Experiment [8] relates to SF-295 CNS.
In experiment [9] the test system is SK-MEL-28 melanoma.
The test system of experiment [10] is BT-549 breast.

On to `CCCCCCCCCCCC[C@@H](O)[C@H]1CC[C@H]([C@H](O)CC[C@H](O)[C@@H]2CC[C@@H](CCCCCCCC3=C[C@H](C)OC3=O)O2)O1`, for which the GI50 in experiment [1] was 8.89 µM; in experiment [3], 1.22 µM; in [4] it was 9.69 µM; in [6] it was 2.55 µM; in experiment [7], 6.6 µM; in experiment [8] it was 2.4 µM. Further, the GI50 in experiment [9] was 3.37 µM; in experiment [10] it was 0.00376 µM. Besides, the TGI in [1], in experiment [2], in experiment [3], in experiment [4], in experiment [5] and in experiment [6] was over 50 µM throughout. The TGI in experiment [7], in experiment [8] and in experiment [9] was over 50 µM throughout.

In the case of `COCCN(CCOC)c1nc(-c2ccccc2)nc2ccccc12`, the GI50 in [1] was 25.2 µM; in experiment [2] it was 24.3 µM; in experiment [3], 4.23 µM; in experiment [4] it was 40.9 µM; in experiment [5] it was 34.6 µM; in experiment [6], 28.3 µM. For the same molecule, the GI50 in [7] is 33.7 µM; in experiment [8] it was 30.9 µM; in [9] it was 29.2 µM; in [10], 22.5 µM. Further, the TGI in experiment [1] was 93.6 µM; in experiment [2] it was 52.9 µM; in experiment [3], over 100 µM; in [4] it was over 100 µM; in [5] it was over 100 µM; in [6], over 100 µM. The TGI in experiment [7] is over 100 µM; in experiment [8], over 100 µM; in [9], over 100 µM; in [10], 47.7 µM.

Take `CCCCCCCCCCCCCCNC(=O)Nc1ccc(Cl)c(Cl)c1`: the GI50 in experiment [1] is 1.33 µM; in [2], 4.07 µM; in experiment [3], 2.5 µM; in [4] it was 4.16 µM; in [5], 4.01 µM; in experiment [6] it was 1.6 µM. Besides, the GI50 is 3.16 µM in experiment [7], 2.6 µM in experiment [8], 3.7 µM in experiment [9] and 1.87 µM in experiment [10]. Moreover, the TGI is over 100 µM in experiment [2]; 11.1 µM in experiment [3]; over 100 µM in experiment [4]; over 26.3 µM in experiment [5]; over 25.1 µM in [6]; over 31.4 µM in [7]. The figures for the TGI in experiment [8], in [9] and in experiment [10] were over 24.8 µM, over 100 µM and 6.16 µM, respectively.

With `CC(C)[C@@H]1CC[C@]2(CO2)[C@@H]2C(=O)OCC(C(=O)O)=C[C@H]21`, the GI50 in [1] was 0.442 µM; in [2], 0.353 µM; in [3], 0.319 µM; in [4], 0.379 µM; in experiment [5], 0.3 µM; in [6] it was 0.62 µM. For the same molecule, the GI50 was 0.351 µM in experiment [7], 1 µM in experiment [8], 0.207 µM in experiment [9] and 0.286 µM in [10]. The TGI was 8.73 µM in experiment [1]; over 34.6 µM in experiment [2]; 2.85 µM in experiment [3]; over 27.1 µM in experiment [4]; 1.37 µM in experiment [5]; 3.96 µM in experiment [6]. The TGI in experiment [7] was over 100 µM; in experiment [8], over 100 µM; in [9], 0.424 µM; in [10], 0.851 µM.

`Cc1ccc(S(=O)(=O)NCCCCC(N)C(=O)O)cc1` (stereo unspecified): the TGI in experiment [1], in [2], in experiment [3], in experiment [4], in experiment [5] and in experiment [6] was over 100 µM in each case. Also, the TGI in experiment [7], in experiment [8], in [9] and in experiment [10] was over 100 µM throughout.

For `COCCN(Cc1ccc(F)cc1)c1ccc(CO)c(Cl)c1`, the GI50 in experiment [1] was 0.559 µM; in experiment [2] it was over 71.3 µM; in [3] it was 45.2 µM; in experiment [4], 33.4 µM; in experiment [5] it was 4.9 µM; in experiment [6], 34 µM. Besides, the GI50 in experiment [7] was 29.9 µM; in [8] it was 3.83 µM; in experiment [9] it was 31.3 µM; in experiment [10], 40.4 µM. Also, the TGI in [1] is 3.7 µM; in experiment [2], over 100 µM; in experiment [3], over 100 µM; in [4], over 100 µM; in [5] it was over 34.6 µM; in [6] it was over 78.9 µM. Moreover, the TGI in [7], in experiment [8], in [9] and in experiment [10] was over 100 µM in each case.
